Like-named read-outs stand apart in the source and are kept apart here.
Columns and labels:
Assay type in all cases: in vivo
Viola tricolor (VIOTR) = assay: Post-emergence action against weeds, greenhouse pot test, Viola tricolor; conditions: Viola tricolor, post-emergence, read-out: % activity found; for inhibition at 12 g/ha: 12 g of ai/ha
Description: (§1) Seeds or rhizome pieces of mono- and dicotyledonous harmful and useful plants were placed in peat pots (diameter 4 cm) filled with sandy loam and then covered with soil. The pots were kept in a greenhouse under optimum conditions. In addition, harmful plants encountered in paddy rice cultivation were cultivated in pots with a water level 2 cm above the soil surface.
(§2) About three weeks after the start of the cultivation, the test plants were treated at the 2- to 3-leaf stage. The herbicides, formulated as powder or liquid concentrates, were, either alone or in the combinations according to the invention, sprayed in various dosages on to the green parts of the plants using an application rate of 600 l of water/ha (converted). For further cultivation of the plants, the pots were then again kept under optimum conditions in a greenhouse.
(§3) The visual scoring of the herbicidal effects was carried out in intervals up to 21 days after the treatment. Scoring was carried out in percent in comparison to the untreated control plants. 0%=no herbicidal activity, 100%=complete herbicidal activity=complete kill.
(§4) The percentages from the treatments with the herbicides alone (=individual application) and with the combinations according to the invention (=mixtures) were employed to calculate interactions using the method of Colby. When the observed efficacies of the mixtures exceed the formal sum of the values of the tests with individual applications, they also exceed the expected value according to Colby, which is calculated using the formula below (cf. S. R. Colby; in Weeds 15 (1967) pp. 20 to 22):
(§5) Here: • A, B=activity of components A and B in percent at a dosage of a and b g of ai/ha (=gramm of active substance per hectare), respectively. • E=expected value in % at a dosage of a+b g of ai/ha.
(§6) The combinations according to the invention of herbicides from group (A) with herbicides from group (B) were tested on a broad spectrum of important harmful plants (weed grasses, broad-leaved weeds/Cyperaceae) and useful plants: Triticum aestivum (TRZAS), Stellaria media (STEME), Lolium multiflorum (LOLMU), Veronica persica (VERPE), Alopecurus myosuroides (ALOMY), Matricaria inodora (MATIN), Brassica napus (BRSNW), Viola tricolor (VIOTR), Avena fatua (AVEFA), Amaranthus retroflexus (AMARE), Zea mays (ZEAMX), Pharbitis purpurea (PHBPU), Setaria viridis (SETVI), Fallopia (ex Polygonum) convolvulus (POLCO), Echinochloa crus-gaffi (ECHCG), Abuthilon theophrasti (ABUTH), Cyperus esculentus (CYPES), Oryza sativa (ORYSA).
(§7) Of particular interest are the results shown in the tables (Tab.) below, where the following key is used: • (1) EPPO code (former Bayer code) for the treated plant (see above) • (2) Time of scoring: DAT (days after treatment) • (3) Component A tested (identifying number) • (4) Component B tested (identifying number) • (5) Dosage component A [g of ai/ha] • (6) Dosage component B [g of ai/ha] • (7) % activity found • (8) E value (calculated according to Colby; see above) • (9) Comments: “SYNERGY”=synergistic interaction (E value <% activity found); “SAFENING”=safener action on useful plant (E value >% activity found)

Veronica persica (VERPE) = assay: Post-emergence action against weeds, greenhouse pot test, Veronica persica; conditions: read-out: % activity found; for inhibition at 12 g/ha: 12 g of ai/ha; for inhibition at 36 g/ha: 36 g of ai/ha
Description: as §1, §2, §3, §4, §5, §6, §7

[1] = system: Lolium multiflorum (LOLMU); assay: Post-emergence action against weeds, greenhouse pot test, Lolium multiflorum; conditions: 12 g of ai/ha, read-out: % activity found
Description: as §1, §2, §3, §4, §5, §6, §7

[2] = system: Matricaria inodora (MATIN); assay: Post-emergence action against weeds, greenhouse pot test, Matricaria inodora; conditions: Tripleurospermum inodorum, post-emergence, read-out: % activity found; for inhibition at 36 g/ha: 36 g of ai/ha
Description: as §1, §2, §3, §4, §5

Setaria viridis (SETVI) = assay: Post-emergence action against weeds, greenhouse pot test, Setaria viridis; conditions: 504 h, 21 DAT, read-out: % activity found
Description: as §1, §2, §3, §4
(§8) Here: • A, B=activity of components A and B in percent at a dosage of a and b g of ai/ha (=gramm of active substance per hectare), respectively. • E=expected value in % at a dosage of a+b g of ai/ha. […]

Oryza sativa (ORYSA) = assay: Post-emergence action against weeds, greenhouse pot test, Oryza sativa; conditions: 240 h, 10 DAT, read-out: % activity found
Description: as §1
as §2, with “greenhouse. […]” for “greenhouse.”
as §4, with “22): […]” for “22):”

[3] = system: Pharbitis purpurea (PHBPU); assay: Post-emergence action against weeds, greenhouse pot test, Pharbitis purpurea; conditions: Ipomoea purpurea, read-out: % activity found; for inhibition at 12 g/ha: 12 g of ai/ha
Description: as §1, §2, §3, §4, §5, §6, §7

Avena fatua (AVEFA) = assay: Post-emergence action against weeds, greenhouse pot test, Avena fatua; conditions: read-out: % activity found; for inhibition at 100 g/ha: 100 g of ai/ha
Description: as §1, §2, §3, §4, §8, §7

Zea mays (ZEAMX) = assay: Post-emergence action against weeds, greenhouse pot test, Zea mays; conditions: Zea mays, post-emergence, read-out: % activity found; for inhibition at 12 g/ha: 12 g of ai/ha; for inhibition at 36 g/ha: 36 g of ai/ha
Description: as §1, §2, §3, §4, §5, §6, §7

[4] = system: Fallopia (ex Polygonum) convolvulus (POLCO); assay: Post-emergence action against weeds, greenhouse pot test, Fallopia convolvulus; conditions: Fallopia convolvulus, post-emergence, 504 h, 21 DAT, read-out: % activity found
Description: as §1, §2, §3, §4, §5, §6, §7

[5] = system: Triticum aestivum (TRZAS); assay: Post-emergence action against weeds, greenhouse pot test, Triticum aestivum; conditions: 504 h, 21 DAT, read-out: % activity found
Description: as §1, §2, §3, §4, §8

[6] = system: Amaranthus retroflexus (AMARE); assay: Post-emergence action against weeds, greenhouse pot test, Amaranthus retroflexus; conditions: read-out: % activity found; for inhibition at 12 g/ha: 12 g of ai/ha; for inhibition at 36 g/ha: 36 g of ai/ha
Description: as §1, §2, §3, §4, §5, §6, §7

[7] = system: Cyperus esculentus (CYPES); assay: Post-emergence action against weeds, greenhouse pot test, Cyperus esculentus; conditions: Cyperus esculentus, post-emergence, read-out: % activity found; for inhibition at 12 g/ha: 12 g of ai/ha
Description: as §1, §2, §3, §4, §5

[8] = system: Alopecurus myosuroides (ALOMY); assay: Post-emergence action against weeds, greenhouse pot test, Alopecurus myosuroides; conditions: 504 h, 21 DAT, 100 g of ai/ha, read-out: % activity found
Description: as §1
as §2, with “greenhouse. […]” for “greenhouse.”
as §4, with “22): […]” for “22):”

Compound: Cc1ccccc1CO[C@@H]1C[C@@]2(C(C)C)CC[C@]1(C)O2 (racemic) [B-24, exo-(±)-1-methyl-4-(1-methylethyl)-2-[(2-methylphenyl)methoxy]-7-oxabicyclo[2.2.1]heptane]
- inhibition at 12 g/ha (Viola tricolor (VIOTR); 240 h, 10 DAT): 0%
- inhibition at 36 g/ha (Viola tricolor (VIOTR); 240 h, 10 DAT, 36 g of ai/ha): 0%
- inhibition at 12 g/ha (Viola tricolor (VIOTR); 504 h, 21 DAT): 0%
- inhibition at 12 g/ha (Veronica persica (VERPE); 240 h, 10 DAT): 0%
- inhibition at 36 g/ha (Veronica persica (VERPE); 240 h, 10 DAT): 0%
- inhibition at 12 g/ha (Veronica persica (VERPE); 504 h, 21 DAT): 0%
- inhibition at 36 g/ha (Veronica persica (VERPE); 504 h, 21 DAT): 0%
- inhibition at 12 g/ha ([1]; 240 h, 10 DAT): 40%
- inhibition at 12 g/ha ([1]; 504 h, 21 DAT): 20%
- inhibition at 36 g/ha ([2]; 240 h, 10 DAT): 0%
- inhibition at 12 g/ha ([2]; 504 h, 21 DAT, 12 g of ai/ha): 0%
- inhibition at 36 g/ha ([2]; 504 h, 21 DAT): 0%
- inhibition at 12 g/ha (Setaria viridis (SETVI); 12 g of ai/ha): 30%
- inhibition at 36 g/ha (Setaria viridis (SETVI); 36 g of ai/ha): 50%
- inhibition at 12 g/ha (Oryza sativa (ORYSA); 12 g of ai/ha): 0%
- inhibition at 36 g/ha (Oryza sativa (ORYSA); 36 g of ai/ha): 20%
- inhibition at 12 g/ha ([3]; 240 h, 10 DAT): 0%
- inhibition at 12 g/ha ([3]; 504 h, 21 DAT): 0%
- inhibition at 36 g/ha ([3]; 504 h, 21 DAT, 36 g of ai/ha): 0%
- inhibition at 12 g/ha (Avena fatua (AVEFA); 504 h, 21 DAT, 12 g of ai/ha): 0%
- inhibition at 12 g/ha (Zea mays (ZEAMX); 240 h, 10 DAT): 0%
- inhibition at 36 g/ha (Zea mays (ZEAMX); 240 h, 10 DAT): 20%
- inhibition at 12 g/ha (Zea mays (ZEAMX); 504 h, 21 DAT): 0%
- inhibition at 36 g/ha (Zea mays (ZEAMX); 504 h, 21 DAT): 0%
- inhibition at 12 g/ha ([4]; 12 g of ai/ha): 0%
- inhibition at 36 g/ha ([4]; 36 g of ai/ha): 0%
- inhibition at 12 g/ha ([5]; 12 g of ai/ha): 0%
- inhibition at 36 g/ha ([5]; 36 g of ai/ha): 10%
- inhibition at 12 g/ha ([6]; 240 h, 10 DAT): 0%
- inhibition at 36 g/ha ([6]; 240 h, 10 DAT): 0%
- inhibition at 12 g/ha ([6]; 504 h, 21 DAT): 0%
- inhibition at 36 g/ha ([6]; 504 h, 21 DAT): 0%
- inhibition at 12 g/ha ([7]; 240 h, 10 DAT): 0%
- inhibition at 12 g/ha ([7]; 504 h, 21 DAT): 0%
- inhibition at 36 g/ha ([7]; 504 h, 21 DAT, 36 g of ai/ha): 20%

Compound: CC1(C)CON(Cc2ccccc2Cl)C1=O [B-26, 2-[(2-chlorophenyl)methyl]-4,4-dimethyl-3-isoxazolidinone]
- inhibition at 300 g/ha (Viola tricolor (VIOTR); 240 h, 10 DAT, 300 g of ai/ha): 50%
- inhibition at 100 g/ha ([2]; 10/21 DAT, 100 g of ai/ha): 40%
- inhibition at 100 g/ha ([3]; 504 h, 21 DAT, 100 g of ai/ha): 0%
- inhibition at 300 g/ha ([3]; 504 h, 21 DAT, 300 g of ai/ha): 0%
- inhibition at 100 g/ha (Avena fatua (AVEFA); 240 h, 10 DAT): 10%
- inhibition at 100 g/ha (Avena fatua (AVEFA); 504 h, 21 DAT): 10%
- inhibition at 300 g/ha (Avena fatua (AVEFA); 504 h, 21 DAT, 300 g of ai/ha): 30%
- inhibition at 100 g/ha [8]: 0%
- inhibition at 100 g/ha (Zea mays (ZEAMX); 504 h, 21 DAT, 100 g of ai/ha): 0%
- inhibition at 300 g/ha (Zea mays (ZEAMX); 504 h, 21 DAT, 300 g of ai/ha): 30%
- inhibition at 100 g/ha ([7]; 504 h, 21 DAT, 100 g of ai/ha): 0%
- inhibition at 300 g/ha ([7]; 504 h, 21 DAT, 300 g of ai/ha): 0%
